Read-outs that look alike come from different tables or passages of the source.
Experiments:
[1] = tested on: GISTs; conditions: one reported study; cited from earlier work
[2] = biological target: T1, KITΔ557-558/T670I (Homo sapiens, UniProt P10721, DEL557-558/T670I); conditions: Ba/F3 cells
Protocol: (§1) Construct: Mutant PDGFRA and KIT cDNA are obtained by RT-PCR on RNA isolated from progressive tumors. The cDNA's are cloned into the retroviral vector pMSCV-puro (Clontech).
(§2) Cell culture: 293T cells are grown in DMEM supplemented with 10% FCS. Ba/F3 cells are grown in RPMI-1640 supplemented with 10% FCS and interleukin-3 (1 ng/ml). Virus as produced as described previously, see e.g. Cools J. et al., N Engl J Med 2003; 348:1201-1214.
(§3) .Ba/F3 cells transduced with the different constructs are selected with puromycin (2 μg/ml). To test for factor independent growth, Ba/F3 cells are washed 3 times in PBS and new cultures are initiated in the absence of interleukin-3. Cells that became independent on interleukin-3, are maintained in the absence of interleukin-3. For dose-response curves, Ba/F3 cells are grown in 24-well plates with different concentrations of inhibitor. The number of viable cells is determined at the start and after 24 hrs, using the AqueousOne solution (Promega).
(§4) Ba/F3 cells are IL3 dependent for their growth, but become IL3 independent upon the expression of many activated kinases, such as FIP1 L1-PDGFRA and BCR-ABL. […] The PDGFRA ΔDIM842-844 mutant serve as a control in this experiment.

[3] = human trials; cited from earlier work
[4] = biological target: T2, PDGFRA D842V (Homo sapiens, UniProt P16234, D842V); test: Dose response curves of Ba/F3 cells expressing mutant kinase (viable cells after 24 hrs); format: cell-based
T2 construct: expressed in transfected cells; host or cells: Ba/F3 murine cells, retroviral transduction with pMSCV-puro
Protocol: as §1, §2, §3, §4

[5] = biological target: T3, PDGFRA ΔDIM842-844 (Homo sapiens, UniProt P16234, DEL842-844); test: as above; format: cell-based
T3 construct: expressed in transfected cells; host or cells: Ba/F3 murine cells, retroviral transduction with pMSCV-puro
Protocol: as §1, §2, §3, §4

[6] = tested on: T674 I mutant form of FIPL1-PDGFRA; conditions: refractory CEL patients; Cools J. et al., Cancer Cell 2003; cited from earlier work
[7] = biological target: T1, KITΔ557-558/T670I; conditions: 90 min, KITΔ557-558/T670I cells
Protocol: (§5) Western-blot: Snap-frozen tumor specimens sufficient for preparation of cell lysates were available from ten refractory GISTs. Cell lysis, SDS-PAGE and immunoblotting were carried out as described.^21 Membranes (Amnersham Pharmacia Biotechnology, UK) were immunoblotted overnight using anti-phospho-KIT (Y703) (Zymed, San Francisco, Calif.) antibody at dilution of 1:500. The HRP-conjugated anti-rabbit IgG was used at a dilution of 1:2500 and visualized with Enhanced Chemiluminescence (Pierce). Membranes were then stripped and re-blotted to determine total protein levels using an antibody recognizing total KIT protein (anti-CD117, A4502, DAKO, Glostrup, Denmark).
(§6) Experiments are performed with serial dilutions of the 10 mM stock. Controls are performed with solvent (DMSO) dilutions. Primary cells are obtained from collagenase disaggregated progressive tumor specimens, seeded at 60-70% confluence in 100-mm cell culture dishes (Corning Inc., Corning, N.Y.) and grown for three days in DMEM supplemented with 10% fetal bovine serum, 0.1 mM nonessential amino acids, and 1.0 mM sodium pyruvate.
(§7) The results are compared with GIST882 cells, which carry a hemizygous KIT K642E mutation. Observations are standardized for total KIT expression using anti-KIT antibody.

[8] = biological target: KITInsAY502-503/V654A (Homo sapiens, UniProt P10721, INS503AY/V654A); conditions: KITIns503AY/V654A cells
Protocol: as §5, §6, §7

| SMILES | patients with primary resistance to imatinib [1] [%] | concentration at which mutant is inhibited [2] | Maximum Tolerated Dose (MTD), total dose [3] [mg/day] | inhibition of PDGFRA D842V mutant ([4]; 1 μM) | concentration at which mutant is inhibited ([4]; PDGFRA D842V) | concentration at which mutant is inhibited [5] | inhibitory activity against imatinib-resistant T674I FIPL1-PDGFRA [6] | KIT autophosphorylation ([7]; 0.5 μM) | KIT autophosphorylation ([7]; 1 μM) | KIT autophosphorylation ([8]; 0.5 μM, 90 min) | KIT autophosphorylation ([8]; ten-fold higher concentration than 0.5 μM) |
| --- | --- | --- | --- | --- | --- | --- | --- | --- | --- | --- | --- |
| Cc1ccc(NC(=O)c2ccc(CN3CCN(C)CC3)cc2)cc1Nc1nccc(-c2cccnc2)n1 [imatinib] | 13.7 |  |  |  |  |  |  |  |  |  |  |
| CO[C@@H]1[C@H](N(C)C(=O)c2ccccc2)C[C@H]2O[C@]1(C)n1c3ccccc3c3c4c(c5c6ccccc6n2c5c31)C(=O)NC4 [PKC412, N-[(9S,10R,11R,13R)-2,3,10,11,12,13-hexahydro-10-methoxy-9-methyl-1-oxo-9,13-epoxy-1H,9H-diindolo[1,2,3-gh:3′,2′,1′-lm]pyrrolo[3,4-j][1,7]benzodiazonin-11-yl]-N-methylbenzamide] |  | below 1 μM | ~225 | efficiently inhibits | below 1 μM | below 1 μM | full inhibitory activity | reduced | totally inhibit | reduced | completely inhibited |

From patent US20090075972A1, “Use of Midostaurin for Treating Gastrointestinal Stromal Tumors” (priority 2004, published 2009)
